According to patent US5424456A, “N-arylalkylderivatives of 2-aminomethyl-2,3-dihydro-1,4-benzodioxine and the process of preparation thereof” (Vyzkumny Ustav Pro Farmacii A Biochemii s.p., priority 1991, dated 1995):
Where two headings read alike, the source gives them in different places.

Assays:
calcium channel = target: T1, calcium channel (Rattus norvegicus, UniProt P22002); test: Calcium channel blocking activity, K+ depolarization-induced contraction of helically cut rat aortic strip; settings: Krebs-Henselheit solution, 37° C., cumulative doses, read-out: IC50 (50% decrease of contraction of the aortic strip)
T1 construct: helically cut rat aortic strip; from tissue; host or cells: rat aorta (helically cut strip)
T1 sequence (P22002 whole entry): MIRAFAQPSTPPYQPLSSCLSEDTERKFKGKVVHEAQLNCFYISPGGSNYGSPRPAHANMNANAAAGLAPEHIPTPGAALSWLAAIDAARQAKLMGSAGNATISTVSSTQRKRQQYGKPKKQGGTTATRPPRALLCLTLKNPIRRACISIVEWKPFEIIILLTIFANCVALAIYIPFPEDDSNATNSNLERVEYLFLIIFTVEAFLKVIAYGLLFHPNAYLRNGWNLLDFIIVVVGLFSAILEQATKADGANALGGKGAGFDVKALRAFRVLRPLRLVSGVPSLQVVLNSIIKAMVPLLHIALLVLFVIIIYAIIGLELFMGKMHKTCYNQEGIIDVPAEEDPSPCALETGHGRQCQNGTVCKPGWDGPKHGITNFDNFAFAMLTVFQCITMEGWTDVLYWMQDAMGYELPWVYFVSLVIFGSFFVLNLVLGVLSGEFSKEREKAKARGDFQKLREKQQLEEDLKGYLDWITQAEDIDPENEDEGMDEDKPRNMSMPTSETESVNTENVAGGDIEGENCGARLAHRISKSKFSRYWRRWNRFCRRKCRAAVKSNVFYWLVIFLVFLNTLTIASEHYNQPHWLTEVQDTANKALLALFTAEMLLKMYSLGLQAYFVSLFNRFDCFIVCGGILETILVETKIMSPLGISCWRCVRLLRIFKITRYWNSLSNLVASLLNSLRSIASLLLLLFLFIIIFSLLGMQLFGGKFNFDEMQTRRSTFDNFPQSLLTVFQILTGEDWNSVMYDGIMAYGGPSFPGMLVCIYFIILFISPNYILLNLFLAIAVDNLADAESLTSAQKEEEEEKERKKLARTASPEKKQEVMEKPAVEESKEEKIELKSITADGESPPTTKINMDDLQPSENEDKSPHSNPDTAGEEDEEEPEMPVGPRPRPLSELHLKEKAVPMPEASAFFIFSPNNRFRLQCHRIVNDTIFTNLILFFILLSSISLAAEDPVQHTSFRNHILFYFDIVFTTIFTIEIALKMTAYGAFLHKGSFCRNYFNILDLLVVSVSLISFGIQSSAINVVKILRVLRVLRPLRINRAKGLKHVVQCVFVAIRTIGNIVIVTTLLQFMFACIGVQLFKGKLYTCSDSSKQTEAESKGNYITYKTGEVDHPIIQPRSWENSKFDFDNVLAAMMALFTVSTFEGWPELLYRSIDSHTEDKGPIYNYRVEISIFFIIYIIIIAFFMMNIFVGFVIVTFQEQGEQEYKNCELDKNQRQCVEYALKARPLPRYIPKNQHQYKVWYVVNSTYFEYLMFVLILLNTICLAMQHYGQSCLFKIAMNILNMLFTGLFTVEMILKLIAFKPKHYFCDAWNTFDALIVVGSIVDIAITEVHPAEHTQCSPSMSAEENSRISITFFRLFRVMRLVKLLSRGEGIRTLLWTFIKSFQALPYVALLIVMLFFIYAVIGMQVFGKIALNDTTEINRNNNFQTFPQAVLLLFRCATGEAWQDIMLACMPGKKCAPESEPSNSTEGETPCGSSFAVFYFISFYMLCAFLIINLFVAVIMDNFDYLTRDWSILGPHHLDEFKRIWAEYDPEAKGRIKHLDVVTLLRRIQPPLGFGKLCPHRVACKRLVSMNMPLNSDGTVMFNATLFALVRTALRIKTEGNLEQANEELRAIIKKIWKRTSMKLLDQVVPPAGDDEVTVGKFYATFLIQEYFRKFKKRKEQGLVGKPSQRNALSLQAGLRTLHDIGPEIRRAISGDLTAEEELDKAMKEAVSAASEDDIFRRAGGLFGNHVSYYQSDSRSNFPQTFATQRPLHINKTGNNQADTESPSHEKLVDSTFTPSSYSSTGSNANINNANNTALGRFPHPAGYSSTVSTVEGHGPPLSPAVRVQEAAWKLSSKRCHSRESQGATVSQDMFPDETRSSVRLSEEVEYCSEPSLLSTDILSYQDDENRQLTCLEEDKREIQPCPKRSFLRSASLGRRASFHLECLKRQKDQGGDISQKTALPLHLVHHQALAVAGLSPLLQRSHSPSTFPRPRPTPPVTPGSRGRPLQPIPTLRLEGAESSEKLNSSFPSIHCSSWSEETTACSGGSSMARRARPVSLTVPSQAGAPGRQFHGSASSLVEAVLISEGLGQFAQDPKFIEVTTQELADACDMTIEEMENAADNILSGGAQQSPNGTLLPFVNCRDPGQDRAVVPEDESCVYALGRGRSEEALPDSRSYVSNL
T1 sequence (P54290 25-1091 partner): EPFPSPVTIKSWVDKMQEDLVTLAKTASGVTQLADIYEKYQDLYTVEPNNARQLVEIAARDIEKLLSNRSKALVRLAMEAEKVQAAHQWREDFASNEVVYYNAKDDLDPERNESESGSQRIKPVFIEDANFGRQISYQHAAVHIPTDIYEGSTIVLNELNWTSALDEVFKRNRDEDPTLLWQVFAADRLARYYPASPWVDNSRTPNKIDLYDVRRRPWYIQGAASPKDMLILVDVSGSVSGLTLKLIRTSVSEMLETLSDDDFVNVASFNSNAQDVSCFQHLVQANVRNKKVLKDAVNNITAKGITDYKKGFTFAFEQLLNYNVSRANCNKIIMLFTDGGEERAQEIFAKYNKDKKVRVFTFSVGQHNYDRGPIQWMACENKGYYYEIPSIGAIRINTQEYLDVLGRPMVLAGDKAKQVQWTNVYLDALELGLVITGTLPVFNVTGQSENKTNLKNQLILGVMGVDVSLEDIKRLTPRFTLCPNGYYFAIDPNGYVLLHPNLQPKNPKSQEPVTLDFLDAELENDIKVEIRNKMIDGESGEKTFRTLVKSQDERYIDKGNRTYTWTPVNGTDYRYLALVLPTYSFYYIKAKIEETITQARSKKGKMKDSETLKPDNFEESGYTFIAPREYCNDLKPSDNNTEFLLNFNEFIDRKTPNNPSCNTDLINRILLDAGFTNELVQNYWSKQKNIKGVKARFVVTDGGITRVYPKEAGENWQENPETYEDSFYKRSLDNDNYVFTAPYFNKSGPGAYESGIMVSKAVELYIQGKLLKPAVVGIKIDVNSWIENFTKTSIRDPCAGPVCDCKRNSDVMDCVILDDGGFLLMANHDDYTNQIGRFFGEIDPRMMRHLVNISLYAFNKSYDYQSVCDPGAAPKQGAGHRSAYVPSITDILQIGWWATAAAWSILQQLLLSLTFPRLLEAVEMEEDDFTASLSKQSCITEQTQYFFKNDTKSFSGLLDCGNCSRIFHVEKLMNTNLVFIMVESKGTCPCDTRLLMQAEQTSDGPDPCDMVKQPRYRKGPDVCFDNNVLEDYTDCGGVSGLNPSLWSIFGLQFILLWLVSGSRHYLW
Experimental: The calcium channel blocking activity of the compounds was tested using a helically cut rat aortic strip in Krebs-Henselheit solution at 37° C., bubbled with a mixture of 95% O2 and 5% CO2. The isometrically registered contractions were induced by K^(+). depolarization. The test compounds were applied in a cumulative doses and the vasodilating activity thereof was expressed in calculated concentration of the test compound, causing 50% decrease of contraction of the aortic strip (IC50).

α-adrenergic [1] = target: T2, α-adrenergic (Rattus norvegicus, UniProt P23944); test: α-adrenergic blocking activity, norepinephrine-induced contraction of helically cut rat aortic strip; settings: 37° C., cumulative doses, read-out: IC50 (concentration causing 50% relaxation)
T2 construct: helically cut rat aortic strip; from tissue; host or cells: rat aorta (helically cut strip)
T2 sequence (P23944 1-561): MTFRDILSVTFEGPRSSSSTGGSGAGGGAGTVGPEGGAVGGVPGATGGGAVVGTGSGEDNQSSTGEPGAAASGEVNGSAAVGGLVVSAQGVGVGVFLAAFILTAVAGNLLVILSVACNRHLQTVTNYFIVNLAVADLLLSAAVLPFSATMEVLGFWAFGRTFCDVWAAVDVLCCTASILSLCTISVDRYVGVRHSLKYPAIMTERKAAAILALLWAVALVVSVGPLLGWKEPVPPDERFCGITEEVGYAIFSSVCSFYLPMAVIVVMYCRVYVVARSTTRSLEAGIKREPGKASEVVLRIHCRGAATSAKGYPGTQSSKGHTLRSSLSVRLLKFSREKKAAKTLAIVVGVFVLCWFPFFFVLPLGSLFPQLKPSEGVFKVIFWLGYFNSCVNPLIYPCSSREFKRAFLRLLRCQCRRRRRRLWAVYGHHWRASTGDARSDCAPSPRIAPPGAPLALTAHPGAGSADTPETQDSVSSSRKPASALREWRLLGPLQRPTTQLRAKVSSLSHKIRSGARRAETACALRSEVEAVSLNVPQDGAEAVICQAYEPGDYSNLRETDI
Experimental: a) The α-adrenergic blocking activity of the compounds was tested using a helically cut rat aortic strip in a Krebs-Henselheit solution at 37° C., bubbled with a mixture of 95% O2 and 5% CO2. Norepinephrine induced contractions were detected isometrically. The compounds were added in cumulative doses and the relaxing activity was expressed in per cents of the maximum norepinephrine contraction.

α-adrenergic [2] = test: α-adrenergic blocking activity, postdecapitation muscular contractions in rats; format: in vivo, rat; settings: i.v., 4.2 g/kg (so in the source), 30 minutes prior to decapitation
Experimental: b) The α-adrenergic blocking activity of compounds VUFB 17951 and VUFB 17959 was also shown in the test of influencing the postdecapitation muscular contractions in rats. The test compounds were administered intravenously in the dose of 4.6 mg/kg for VUFB 17951 and […] for VUFB 17959.

blood pressure [3] = test: Hypotensive activity, pentobarbital anaesthesized dogs; format: in vivo, dog
Excerpt: b) The blood pressure of pentobarbital anaesthesized dogs was registered invasively in arteria femoralis. The average decrease in systolic (SBP) arid diastolic (DBP) blood pressure expressed in per cents of the starting blood pressure level after intravenous and oral administration is shown in Tables 5 and 6.

blood pressure [4] = test: Hypotensive activity, conscious monkeys; format: in vivo, Macaca mulatta
Experimental: c) The blood pressure of conscious monkeys (Macaca mulatta) was measured non-invasively on the arm. The average decrease in systolic (SBP) and diastolic (DBP) blood pressure after intravenous and oral administration was expressed in per cents of the starting blood pressure.

[5] = tested on: rat peripheral venous thrombosis; test: Antithrombotic activity, rat peripheral venous thrombosis in closed abdominal part of vena cava; format: in vivo; settings: rats, read-out: statistically significant effective dose (mass of thrombi)
Experimental: The antithrombotic activity of the test compounds was established using the model of rat peripheral venous thrombosis in a closed abdominal part of vena cava. The thrombus was induced by intravenous administration of hypotonic solution of sodium chloride. The thrombus was freed 10 minutes after induction and weighted. The mass of thrombi in control animals was compared to the mass of thrombi of animals administered by the test compound. The statistically significant effective dose for compound VUFB 17951 was 0.5 mg/kg intravenously and 5 mg/kg orally and for the compound VUFB 17959 0.25 mg/kg and 1.0 mg/kg, respectively. The corresponding dose of a standard (Cilostazol, generic name, Merck index, 11th Edition, 2277) was 25 mg/kg orally.

[6] = tested on: urinary bladder sphincter; test: Effect on the opening pressure of the urinary bladder sphincter; format: in vivo, rat; settings: rats, compared with prazosin or terazosin
[7] = i.v., 0.45 mg/kg, value 1 of 5 (heads 5/30/60/180 min; probably 1 min)
[8] = i.v., 0.45 mg/kg, value 2 of 5 (heads 5/30/60/180 min; probably 5 min)
[9] = i.v., 0.45 mg/kg, value 3 of 5 (heads 5/30/60/180 min; probably 30 min)
[10] = i.v., 0.45 mg/kg, value 4 of 5 (heads 5/30/60/180 min; probably 60 min)
[11] = i.v., 0.45 mg/kg, value 5 of 5 (heads 5/30/60/180 min; probably 180 min)
[12] = i.v., 4.5 mg/kg, value 1 of 5 (heads 5/30/60/180 min; probably 1 min)
[13] = i.v., 4.5 mg/kg, value 2 of 5 (heads 5/30/60/180 min; probably 5 min)
[14] = i.v., 4.5 mg/kg, value 3 of 5 (heads 5/30/60/180 min; probably 30 min)
[15] = i.v., 4.5 mg/kg, value 4 of 5 (heads 5/30/60/180 min; probably 60 min)
[16] = i.v., 4.5 mg/kg, value 5 of 5 (heads 5/30/60/180 min; probably 180 min)

For `Cc1ccccc1C(C#N)(CCCNCC1COc2ccccc2O1)C(C)C` (racemic) [VUFB 17959, 5-(2,3-dihydro-1,4-benzodioxin-2-ylmethylamino)-2-isopropyl-2-(2-methylphenyl) valeronitrile], the IC50 (calcium channel) was 16 µM, the IC50 (α-adrenergic [1]) was 25 µM and the “decrease in number of postdecapitation contractions” value (α-adrenergic [2]) was “highly significant decrease in number of postdecapitation contractions”. The “decrease in diastolic blood pressure (DBP)” value (“decrease … (DBP)” below) (blood pressure [3]; [7]) was -52 per cents, the “decrease in systolic blood pressure (SBP)” value (shortened to “decrease … (SBP)”) (blood pressure [3]; [7]) was -16 per cents and the “decrease … (DBP)” value (blood pressure [3]; [8]) was -23 per cents. The “decrease … (SBP)” value (blood pressure [3]; [8]) was -23 per cents, the “decrease … (DBP)” value (blood pressure [3]; [9]) was -16 per cents and the “decrease … (SBP)” value (blood pressure [3]; [9]) was -14 per cents. The “decrease … (DBP)” value (blood pressure [3]; [10]) was -16 per cents, the “decrease … (SBP)” value (blood pressure [3]; [10]) was -13 per cents and the “decrease … (DBP)” value (blood pressure [3]; [11]) was -2 per cents. The “decrease … (SBP)” value (blood pressure [3]; [11]) was -6 per cents, the “decrease … (DBP)” value (blood pressure [3]; [12]) was -63 per cents and the “decrease … (SBP)” value (blood pressure [3]; [12]) was -43 per cents. For the same molecule, the “decrease … (DBP)” value (blood pressure [3]; [13]) was -46 per cents, the “decrease … (SBP)” value (blood pressure [3]; [13]) was -43 per cents and the “decrease … (DBP)” value (blood pressure [3]; [14]) was -29 per cents. For the same molecule, the “decrease … (SBP)” value (blood pressure [3]; [14]) was -31 per cents, the “decrease … (DBP)” value (blood pressure [3]; [15]) was -25 per cents and the “decrease … (SBP)” value (blood pressure [3]; [15]) was -23 per cents. For the same molecule, the “decrease … (DBP)” value (blood pressure [3]; [16]) was -14 per cents, the “decrease … (SBP)” value (blood pressure [3]; [16]) was -17 per cents and the “decrease … (DBP)” value (blood pressure [3]; p.o., 4.2 mg/kg, 15 min) was -5 per cents. For the same molecule, the “decrease … (SBP)” value (blood pressure [3]; p.o., 4.2 mg/kg, 15 min) was -5 per cents, the “decrease … (DBP)” value (blood pressure [3]; p.o., 4.2 mg/kg, 30 min) was -20 per cents and the “decrease … (SBP)” value (blood pressure [3]; p.o., 4.2 mg/kg, 30 min) was -16 per cents. For the same molecule, the “decrease … (DBP)” value (blood pressure [3]; p.o., 4.2 mg/kg, 60 min) was -20 per cents, the “decrease … (SBP)” value (blood pressure [3]; p.o., 4.2 mg/kg, 60 min) was -18 per cents and the “decrease … (DBP)” value (blood pressure [3]; p.o., 4.2 mg/kg, 120 min) was -20 per cents. For the same molecule, the “decrease … (SBP)” value (blood pressure [3]; p.o., 4.2 mg/kg, 120 min) was -20 per cents, the “decrease … (DBP)” value (blood pressure [3]; p.o., 4.2 mg/kg, 300 min) was -21 per cents and the “decrease … (SBP)” value (blood pressure [3]; p.o., 4.2 mg/kg, 300 min) was -23 per cents. The “decrease … (DBP)” value (blood pressure [4]; i.v., 0.25 mg/kg, 1 min) was -4 per cents, the “decrease … (SBP)” value (blood pressure [4]; i.v., 0.25 mg/kg, 1 min) was -1 per cents and the “decrease … (DBP)” value (blood pressure [4]; i.v., 0.25 mg/kg, 5 min) was -16 per cents. For the same molecule, the “decrease … (SBP)” value (blood pressure [4]; i.v., 0.25 mg/kg, 5 min) was -12 per cents, the “decrease … (DBP)” value (blood pressure [4]; i.v., 0.25 mg/kg, 30 min) was -24 per cents and the “decrease … (SBP)” value (blood pressure [4]; i.v., 0.25 mg/kg, 30 min) was -22 per cents. The “decrease … (DBP)” value (blood pressure [4]; i.v., 0.25 mg/kg, 60 min) was -20 per cents, the “decrease … (SBP)” value (blood pressure [4]; i.v., 0.25 mg/kg, 60 min) was -17 per cents and the “decrease … (DBP)” value (blood pressure [4]; i.v., 0.25 mg/kg, 180 min) was -7 per cents. The “decrease … (SBP)” value (blood pressure [4]; i.v., 0.25 mg/kg, 180 min) was -5 per cents, the “decrease … (DBP)” value (blood pressure [4]; i.v., 1.0 mg/kg, 1 min) was -34 per cents and the “decrease … (SBP)” value (blood pressure [4]; i.v., 1.0 mg/kg, 1 min) was -28 per cents. The “decrease … (DBP)” value (blood pressure [4]; i.v., 1.0 mg/kg, 5 min) was -38 per cents, the “decrease … (SBP)” value (blood pressure [4]; i.v., 1.0 mg/kg, 5 min) was -31 per cents and the “decrease … (DBP)” value (blood pressure [4]; i.v., 1.0 mg/kg, 30 min) was -42 per cents. The “decrease … (SBP)” value (blood pressure [4]; i.v., 1.0 mg/kg, 30 min) was -31 per cents, the “decrease … (DBP)” value (blood pressure [4]; i.v., 1.0 mg/kg, 60 min) was -27 per cents and the “decrease … (SBP)” value (blood pressure [4]; i.v., 1.0 mg/kg, 60 min) was -24 per cents. The “decrease … (DBP)” value (blood pressure [4]; i.v., 1.0 mg/kg, 180 min) was -14 per cents, the “decrease … (SBP)” value (blood pressure [4]; i.v., 1.0 mg/kg, 180 min) was -8 per cents and the “decrease … (DBP)” value (blood pressure [4]; p.o., 10.0 mg/kg, 5-6 hours) was -10 per cents. The “decrease … (SBP)” value (blood pressure [4]; p.o., 10.0 mg/kg, 5-6 hours) was -11 per cents, the “decrease … (DBP)” value (blood pressure [4]; p.o., 10.0 mg/kg, 0.5 hours) was -16 per cents and the “decrease … (SBP)” value (blood pressure [4]; p.o., 10.0 mg/kg, 0.5 hours) was -20 per cents. The “decrease … (DBP)” value (blood pressure [4]; p.o., 10.0 mg/kg, 1 hours) was -15 per cents, the “decrease … (SBP)” value (blood pressure [4]; p.o., 10.0 mg/kg, 1 hours) was -15 per cents and the “decrease … (DBP)” value (blood pressure [4]; p.o., 10.0 mg/kg, 3 hours) was -16 per cents. For the same molecule, the “decrease … (SBP)” value (blood pressure [4]; p.o., 10.0 mg/kg, 3 hours) was -17 per cents, the “decrease … (DBP)” value (blood pressure [4]; p.o., 10.0 mg/kg, 24 hours) was “+5 per cents” and the “decrease … (SBP)” value (blood pressure [4]; p.o., 10.0 mg/kg, 24 hours) was “+1 per cents”. For the same molecule, the minimal effective dose ([5]; iv, intravenously) was 0.25 mg/kg, the minimal effective dose ([5]; po, orally) was 1 mg/kg and the “duration of action on opening pressure of the urinary bladder sphincter” value [6] was “longer duration of action”. For the same molecule, the “lowering of the opening pressure of the urinary bladder sphincter” value ([6]; corresponding doses) was “lowered the opening pressure of the urinary bladder sphincter of rats in corresponding doses in the same extent as prazosin”.
